Reference: patent publication US20210386761A1, “COMPOSITION FOR PREVENTING OR TREATING INFLAMMATORY BOWEL DISEASE, CONTAINING, AS ACTIVE INGREDIENT, TAURODEOXYCHOLIC ACID OR PHARMACEUTICALLY ACCEPTABLE SALT THEREOF” (SHAPERON INC., priority 2019, published 2021)

Legend:
[1] = tested on: inflammatory bowel disease-induced mouse model (DSS); experiment: Histopathological symptom analysis (colon length, histological state and score) in 2% DSS mouse model; assay type: in vivo
Method: (§1) After the experiment was completed, the mice were euthanized with CO2 and the bowels were excised. Next, the bowels were put in cold 1×DPBS and the remaining mesenteric adipose tissue was isolated. At this time, the colon length was measured. Next, the tail end of the colon was opened and wound up with scissors to obtain colon tissue. The obtained colon tissue was fixed in 10% neutral buffered formalin (Sigma-Aldrich, HT501128-4L, St. Louis, Mo., USA) at room temperature for 48 hours and then treated in a tissue processor (Excelsior ES, Thermo scientific, Waltham, Mass., USA) for 12 hours. The processed tissue was sectioned and paraffinized using a microtome (Microm, HM 340E, Thermo Scientific, Waltham, Mass., USA) and an embedding system (HistoStar, Thermo Scientific, Waltham, Mass., USA). Next, the processed tissue was stained with hematoxylin and eosin, and visualized under an optical microscope (Motic, BA310, Redding, Calif., USA) to confirm the histopathological state, and the histopathological state was scored to histological score according to the criteria in the following [Table 2].
(§2) Specifically, female C57BL/6 mice were fed with a 2% DSS solution or DPBS together with drinking water for 7 days from Day 0 of the experiment by the same method as that described in <Example 1>, DPBS or 5 mg/kg TDCA was administered to the mice by oral gavage one time a day for 6 days from Day 1 of the experiment, and the body weight and DAI were measured daily. As a control, mice freely fed with drinking water were used. Next, the mice were sacrificed on Days 5 and 7 of the experiment by the same method as that described in <Example 2>, and histopathological symptom analysis was performed.
as §2, with “or 10, 5, 2.5, or 1” for “or 5”, “1” for “1 of”, “used.” for “used. Next, the mice were sacrificed on Days 5 and 7 of the experiment by the same method as that described in <Example 2>, and histopathological symptom analysis was performed.”
Next, the mice were sacrificed on Day 8 of the experiment by the same method as that described in <Example 2>, and histopathological symptom analysis was performed.
The mice were sacrificed on Day 8 of the experiment by the same method as that described in <Example 2>, and the colon length was measured.

[2] = tested on: inflammasome activity of bone marrow-derived macrophages; experiment: Inhibition of IL-1β secretion of bone marrow-derived macrophages (LPS then ATP or BzATP); assay type: cell-based; details: Mus musculus, Macrophage, LPS 10 ng/ml 3 h, TDCA 1 h, ATP 0.5 mM or BzATP 0.3 mM 1 h, FIGS. 10A and 10B
Method: Bone marrow was collected from a DPBS-administered mouse which had been subjected to an experiment by the same method as that described in <Example 2>, induced to differentiate into macrophages, then pretreated with LPS (10 ng/ml) for 3 hours so as to be 4×10^4 cells in a 96-well plate, treated with TDCA at various concentrations for 1 hour, then treated with ATP (0.5 mM) or BzATP (0.3 mM) for an additional 1 hour, and cultured, and the amount of IL-1β in the cell culture was measured and analyzed using an ELISA kit (R & D systems, USA) according to the manufacturer's procedure.

[3] = tested on: inflammatory bowel disease induced by 3% DSS administration for 7 days; experiment: 3% DSS 7-day inflammatory bowel disease model, comparison with clinical prescription drugs; assay type: in vivo, mouse; details: 3% DSS 7 days
Method: (§3) In order to evaluate the clinical symptoms-improving efficacy in comparison with those by clinical prescription drugs, inflammatory bowel disease was induced by 7-day or repeated administration of 3% or 2.5% DSS solution, and tofacitinib 10 mg/kg, 5-ASA 100 mg/kg or 200 mg/kg, prednisolone 1 mg/kg, and TDCA 2.5 mg/kg were administered one time a day from the start date of DSS administration. From the start date of DSS administration, TDCA 2.5 mg/kg was administered one time a day (QD), two times a day (BID), and three times a day (TID).
The disease activity indexes (DAI) including body weight, body weight loss, stool consistency, and bloody stool were measured daily. DAI was scored according to the following [Table 1].
as §1

[4] = tested on: chronic inflammatory bowel disease model induced with 2.5% DSS; experiment: Chronic inflammatory bowel disease model, repeated 2.5% DSS, comparison with clinical prescription drugs; assay type: in vivo, mouse
Method: as §3

[5] = 2% DSS 7 days, 5 mg/kg TDCA oral gavage, FIG. 2B
[6] = 2% DSS 7 days, 10, 5, 2.5, or 1 mg/kg TDCA, Day 8, FIG. 5B

SMILES: C[C@H](CCC(=O)NCCS(=O)(=O)O)[C@H]1CC[C@H]2[C@@H]3CC[C@@H]4C[C@H](O)CC[C@]4(C)[C@H]3C[C@H](O)[C@]12C [TDCA, sodium taurodeoxycholic acid]
- colon length change ([1]; 2% DSS 7 days, 5 mg/kg TDCA oral gavage one time a day for 6 days, FIG. 2A): the decrease in colon length was slight
- average histological score ([1]; 2% DSS 7 days, 5 mg/kg TDCA oral gavage, DSS+DPBS group about 7, FIG. 2C): about 4
- epithelial cell defects (histological state) [1, 5]: not observed
- infiltration of inflammatory cells into the mucous membrane [1, 5]: slight
- ulcer ([1]; 2% DSS 7 days, 5 mg/kg TDCA oral gavage, FIG. 2C): the ulcer was alleviated
- colon length change ([1]; 2% DSS 7 days, 10, 5, 2.5, or 1 mg/kg TDCA, Day 8, FIG. 5A): the decrease in colon length was slight
- epithelial cell defects (histological state) [1, 6]: not observed
- infiltration of inflammatory cells into the mucous membrane [1, 6]: alleviated
- colon length change ([1]; 2% DSS 7 days, TDCA at 5 and 10 mg/kg, Day 8, FIG. 5A): the decrease in colon length was slighter
- average histological score ([1]; 2% DSS 7 days, TDCA at 5 and 10 mg/kg, Day 8, FIG. 5C): about 4
- ulcer alleviating effect ([1]; 2% DSS 7 days, TDCA at 5 and 10 mg/kg, Day 8, FIGS. 5B and 5C): superior
- colon length change ([1]; DSS+TDCA group: 5 mg/kg TDCA from Day 1 of DSS, Day 8, FIG. 6C): the decrease in colon length was suppressed
- colon length change ([1]; DSS+preTDCA group: 5 mg/kg TDCA from 2 days before DSS, Day 8, FIG. 6C): the decrease in colon length was suppressed
- IC50 [2]: 60 to 90 nM
- body weight change, compared with clinical prescription drugs ([3]; TDCA 2.5 mg/kg one time a day vs tofacitinib 10 mg/kg and 5-ASA 100 mg/kg, FIG. 9A): effect equivalent to those by tofacitinib 10 mg/kg and 5-ASA 100 mg/kg
- DAI change, compared with clinical prescription drugs ([3]; TDCA 2.5 mg/kg one time a day vs tofacitinib 10 mg/kg and 5-ASA 100 mg/kg, FIG. 9B): effect equivalent to those by tofacitinib 10 mg/kg and 5-ASA 100 mg/kg
- colon length, compared with clinical prescription drugs ([3]; TDCA 2.5 mg/kg vs tofacitinib 10 mg/kg and 5-ASA 100 mg/kg, FIG. 9C): effect equivalent to those by tofacitinib 10 mg/kg and 5-ASA 100 mg/kg
- histological lesion index, compared with clinical prescription drugs ([3]; TDCA 2.5 mg/kg vs tofacitinib 10 mg/kg and 5-ASA 100 mg/kg, FIG. 9D): effect equivalent to those by tofacitinib 10 mg/kg and 5-ASA 100 mg/kg
- body weight change, compared with clinical prescription drugs ([4]; TDCA 2.5 mg/kg QD, BID and TID vs tofacitinib 10 mg/kg and 5-ASA 200 mg/kg, FIG. 11A): effect equivalent to or higher than those by tofacitinib 10 mg/kg and 5-ASA 200 mg/kg
- mortality, compared with clinical prescription drugs ([4]; TDCA 2.5 mg/kg, FIG. 11B): effect equivalent to or higher than those by clinical prescription drugs
